Assay results published in patent publication US20110045101A1, “FUNGICIDAL SUBSTITUTED AZOLES” (E.I. Du Pont De Nemours and Company, priority 2009, published 2011).
Marks after values point to notes of the source that are not given here.

Legend:
Format in all cases: in vivo
Details in all cases: 100 = 100% disease control
Septoria nodorum = test: Test F: wheat glume blotch on wheat seedlings, sprayed the day before inoculation, visual disease rating
In short: (§1)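 Spray suspension: acetone 3% of final volume, then 50/50 acetone/water plus 250 ppm Trem® 014. Applied to run-off on seedlings at 200 ppm (≈500 g/ha); starred entries tested at 40 ppm.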

Septoria tritici = test: Test G: wheat leaf blotch on wheat seedlings, sprayed the day before inoculation, visual disease rating
In short: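 Wheat seedlings were sprayed to run-off with test suspension (acetone/water plus surfactant), generally 200 ppm (≈500 g/ha), or 40 ppm where marked. Septoria tritici spores were inoculated the next day; plants were held 48 h at 24°C in saturated atmosphere, then 19 days at 20°C before visual disease rating.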

[1] = system: Puccinia recondita f. sp. tritici; test: Test H: wheat leaf rust, test suspension sprayed after inoculation of wheat seedlings, visual disease rating
In short: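 Wheat seedlings inoculated with P. recondita spores, held 24 h saturated at 20 °C, then 2 days in growth chamber at 20 °C; compound suspension (acetone/water with Trem 014) sprayed to run-off afterwards. Rated visually; 200 ppm (≈500 g/ha) unless marked *, which denotes 40 ppm.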

[2] = system: Erysiphe graminis f. sp. tritici; test: Test J: wheat powdery mildew on wheat seedlings, sprayed the day before inoculation, visual disease rating
In short: as §1

[3] = system: Puccinia recondita f. sp. tritici; test: Test I: wheat leaf rust on wheat seedlings, sprayed the day before inoculation, visual disease rating
In short: as §1

Alternaria solani = test: Test D: tomato early blight, sprayed the day before inoculation, visual disease rating
In short: as §1

Botrytis cinerea = test: Test C: tomato Botrytis on tomato seedlings, sprayed the day before inoculation, visual disease rating
In short: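 Spray to run-off on tomato seedlings; test conc. 200 ppm (≈500 g/ha), some entries 40 ppm. Formulation: acetone 3% of final vol., then acetone/water 50:50 + 250 ppm polyhydric alcohol ester surfactant.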

[4] = 200 ppm, 0 = no control relative to controls

Structure (SMILES)	Test F disease control rating (Septoria nodorum; [4])	Test G disease control rating (Septoria tritici; [4])	Test H disease control rating [1, 4]	Test J disease control rating [2, 4]	Test I disease control rating [3, 4]	Test D disease control rating (Alternaria solani; [4])	Test C disease control rating (Botrytis cinerea; [4])	other results
COc1cc(F)c(-c2c(Cl)nc(C)n2-c2cccc(Cl)c2)c(F)c1 [compound 500]	100%	94%	98%	100%	100%	100%	98%	–
COc1ccc(F)c(-c2c(C)nc(Cl)n2-c2ccc(Cl)nc2)c1F [compound 733]	100%	100%	41%	100%	100%	100%	100%	–
COc1ccc(F)c(-c2c(Br)nc(Cl)n2-c2ccc(Cl)cc2)c1F [compound 510]	100%	99%	9%	100%	98%	100%	99%	–
Cc1nc(C)n(-c2ccc(Cl)c(F)c2)c1-c1c(F)ccc(F)c1Cl [compound 489]	–	–	–	–	–	–	–	Test F disease control rating (Septoria nodorum; 40 ppm (marked *)): 0* %; Test G disease control rating (Septoria tritici; 40 ppm (marked *)): 93* %; Test H disease control rating ([1]; 40 ppm (marked *)): 0* %; Test J disease control rating ([2]; 40 ppm (marked *)): 100* %; Test I disease control rating ([3]; 40 ppm (marked *)): 100* %; Test D disease control rating (Alternaria solani; 40 ppm (marked *)): 98* %; Test C disease control rating (Botrytis cinerea; 40 ppm (marked *)): 96* %
COc1ccc(F)c(-c2c(Cl)nc(Cl)n2-c2ccc(C#N)cc2)c1F [compound 552]	0%	96%	0%	98%	46%	100%	99%	–
Cc1ccc(-n2c(C)nc(Cl)c2-c2c(F)cc(O)cc2F)cc1 [Compound 624, 4-[4-chloro-2-methyl-1-(4-methylphenyl)-1H-imidazol-5-yl]-3,5-difluorophenol]	–	–	–	–	–	–	–	pest or weed control at 200 ppm (Septoria nodorum; Parastagonospora nodorum, 264 h, 200 ppm, 0 = no control relative to controls): 0%; pest or weed control at 200 ppm (Septoria tritici; Zymoseptoria tritici, 504 h, 200 ppm, 0 = no control relative to controls): 94%; pest or weed control at 200 ppm ([1]; Puccinia recondita, 96 h, 200 ppm, 0 = no control relative to controls): 0%; pest or weed control at 200 ppm ([2]; Blumeria graminis, 168 h, 200 ppm, 0 = no control relative to controls): 90%; pest or weed control at 200 ppm ([3]; Puccinia recondita, 168 h, 200 ppm, 0 = no control relative to controls): 99%; pest or weed control at 200 ppm (Alternaria solani; Alternaria solani, 168 h, 200 ppm, 0 = no control relative to controls): 64%; pest or weed control at 200 ppm (Botrytis cinerea; Botrytis cinerea, 120 h, 200 ppm, 0 = no control relative to controls): 99%
COc1cc(F)c(-c2c(Cl)ncn2Cc2ccc(Cl)cc2)c(F)c1 [compound 268]	–	–	–	–	–	–	–	Test F disease control rating (Septoria nodorum; 200 ppm, 0 = no control): 98%; Test G disease control rating (Septoria tritici; 200 ppm, 0 = no control): 87%; Test H disease control rating ([1]; 200 ppm, 0 = no control): 63%; Test J disease control rating ([2]; 200 ppm, 0 = no control): 75%; Test I disease control rating ([3]; 200 ppm, 0 = no control): 99%; Test D disease control rating (Alternaria solani; 200 ppm, 0 = no control): 100%; Test C disease control rating (Botrytis cinerea; 200 ppm, 0 = no control): 99%
Fc1cccc(F)c1-c1c(Cl)nc(Cl)n1-c1ccccc1 [compound 591]	0%	97%	96%	98%	98%	100%	100%	–
CN(C)c1ncn(-c2cccc(F)c2)c1-c1c(F)cc(F)cc1F [compound 363]	0%	53%	9%	0%	0%	0%	99%	–
COc1cc(F)c(-n2c(Cl)nc(CCl)c2-c2ccc(C)cc2)c(F)c1 [compound 581]	–	–	–	–	–	–	–	Test F disease control rating (Septoria nodorum; 40 ppm (marked *)): 0* %; Test G disease control rating (Septoria tritici; 40 ppm (marked *)): 96* %; Test H disease control rating ([1]; 40 ppm (marked *)): 84* %; Test J disease control rating ([2]; 40 ppm (marked *)): 21* %; Test I disease control rating ([3]; 40 ppm (marked *)): 98* %; Test D disease control rating (Alternaria solani; 40 ppm (marked *)): 33* %; Test C disease control rating (Botrytis cinerea; 40 ppm (marked *)): 99* %
Cc1nc(Cl)c(-c2c(F)cc(F)cc2F)n1-c1ccc(OC(F)(F)F)cc1 [compound 612]	60%	96%	0%	100%	8%	100%	99%	–
N#Cc1ccc(F)c(-c2c(Cl)ncn2-c2ccc(F)cc2)c1F [compound 656]	20%	99%	9%	100%	100%	100%	100%	–
COc1cc(F)c(-c2c(Cl)ncn2-c2ccc(OC(F)(F)F)cc2)c(F)c1 [compound 559]	0%	95%	29%	98%	88%	41%	94%	–
Cc1ccc(-n2c(C)nc(Cl)c2-c2c(F)cc(OC(F)F)cc2F)cc1 [compound 631]	0%	100%	40%	100%	99%	99%	99%	–
COc1ccc(F)c(-c2c(Cl)nc(Cl)n2-c2ccc(C)cc2)c1F [compound 310]	99%	96%	61%	100%	100%	100%	99%	–
COc1cc(F)c(-n2c(Br)nc(C)c2-c2cccc(F)c2)c(F)c1 [compound 687]	–	–	–	–	–	–	–	Test F disease control rating (Septoria nodorum; 40 ppm (marked *)): 99* %; Test G disease control rating (Septoria tritici; 40 ppm (marked *)): 98* %; Test H disease control rating ([1]; 40 ppm (marked *)): 100* %; Test J disease control rating ([2]; 40 ppm (marked *)): 100* %; Test I disease control rating ([3]; 40 ppm (marked *)): 100* %; Test D disease control rating (Alternaria solani; 40 ppm (marked *)): 100* %; Test C disease control rating (Botrytis cinerea; 40 ppm (marked *)): 100* %
Fc1cc(-n2c(Cl)nc(Cl)c2-c2ccnc(Br)c2)ccc1Cl [compound 485]	0%	95%	0%	98%	98%	88%	96%	–
COc1cc(OC)cc(-n2c(Cc3ccc(F)cc3F)cnc2C)c1 [compound 476]	0%	59%	0%	47%	78%	0%	0%	–
Cc1nc(Cl)c(-c2c(F)cccc2F)n1-c1ccc(Cl)nc1 [compound 666]	99%	99%	100%	100%	100%	100%	100%	–
COc1cc(F)c(-c2c(C)nc(C)n2-c2ccc(F)cc2)c(F)c1 [compound 522]	–	–	–	–	–	–	–	Test F disease control rating (Septoria nodorum; 40 ppm (marked *)): 0* %; Test G disease control rating (Septoria tritici; 40 ppm (marked *)): 98* %; Test H disease control rating ([1]; 40 ppm (marked *)): 0* %; Test J disease control rating ([2]; 40 ppm (marked *)): 96* %; Test I disease control rating ([3]; 40 ppm (marked *)): 99* %; Test D disease control rating (Alternaria solani; 40 ppm (marked *)): 100* %; Test C disease control rating (Botrytis cinerea; 40 ppm (marked *)): 100* %
COc1ccc(Cl)c(-c2c(Cl)ncn2-c2ccc(Cl)cc2)c1F [compound 482]	69%	95%	0%	99%	91%	99%	99%	–
COc1cc(F)c(-c2c(Cl)nc(C)n2Cc2ccc(C)cc2)c(F)c1 [compound 296]	–	–	–	–	–	–	–	Test F disease control rating (Septoria nodorum; 200 ppm, 0 = no control): 86%; Test G disease control rating (Septoria tritici; 200 ppm, 0 = no control): 96%; Test H disease control rating ([1]; 200 ppm, 0 = no control): 17%; Test J disease control rating ([2]; 200 ppm, 0 = no control): 97%; Test I disease control rating ([3]; 200 ppm, 0 = no control): 99%; Test D disease control rating (Alternaria solani; 200 ppm, 0 = no control): 96%; Test C disease control rating (Botrytis cinerea; 200 ppm, 0 = no control): 100%
Fc1ccc(-n2c(Br)nc(Br)c2-c2ccc(Cl)cc2)c(Cl)c1 [compound 306]	0%	94%	6%	99%	91%	96%	99%	–
